Here are results for five molecules from patent publication US20070265451A1, “Process for the preparation of oxazolidinones and method of use thereof” (Board of Trustees of Michigan State University, priority 2001, published 2007).

SMILES strings stand for the structures. Values after ≈ are worked out from the molar mass of the structure shown.

Common to all, as to assay type: cell-based
For test [1], the system named is Staphylococcus aureus NRS4 (992; HIP5836; New Jersey). Kind of test: Broth microdilution MIC, MR SA New Jersey. To be noted: strain New Jersey; for MIC90: Staphylococcus aureus, NRS4, methicillin resistant SA, read-out: MIC90-100 MR SA New Jersey. An excerpt: (§1) See, NCCLS document M7-A5. Methods for Dilution Antimicrobial Susceptibility Tests for Bacteria That Grow Aerobically; Approved Standard-Fifth Edition. Volume 20, Number 2. January 2000, (ISBN 1-56238-394-9) and Lorian V. Antibiotics. Laboratory Medicine. 4th ed. Baltimore: Williams and Wilkins, pp. 52-111 (1996). For subsequent testing, the following strains have been used: Staphylococcus aureus NRS4 (992; HIP5836; New Jersey) (Smith et al., New Engl. J. Med. 340: 493-501 (1999); Tenover et al., J. Clin. Microbiol. 36: 1020-1027 (1998)), Staphylococcus aureus NRS3 (963sm; HIP5827; Michigan) (Smith et al., ibid.; Tenover et al., ibid.), Staphylococcus aureus NRS103 (Becker) (Karakawa and Vann, Sem. Infect. Dis. 4: 285 (1982), Staphylococcus aureus NRS102 (Reynolds) Karakawa and Vann, ibid; McMurray et al., JID 162: 759-762 (1990)), Staphylococcus epidermidis NRS101 (ATCC 35984), Streptococcus pneumoniae (ATCC 49619), Enterococcus faecalis (ATCC 51299), and Staphylococcus aureus (ATCC 43300.
(§2) Stock cultures of these strains were obtained by seeding colonies from overnight streak plates (Tryptic Soy Agar II (TSAII) and 5% sheep's blood (SB) agar plates: Becton Dickinson, CA#2211261) into sterile Mueller-Hinton Broth (MHB)(Becton Dickinson, CA#211443) and growing the suspensions to mid-late log phase in 13 mL screw-cap tubes. Glycerol (Sigma, CA#G-6279) was sterilized by autoclaving for 15 minutes at 121° C. in 6 mL volumes, and then stored at 2-8° C. This was diluted to 20% in dH2O, and then added 1:1 (250 μL:250 μL, 10% final glycerol concentration) to the logarithmically growing bacterial suspension of each strain. Tubes were frozen and stored at −70° C. Purity of the stock cultures was tested by thawing one tube of each strain in a water bath at 37° C. and plating them on TSAII with 5% SB. Plates were incubated overnight at 37° C. and colonies were examined for morphology. Growth curves and approximate CFU/mL were also obtained.
(§3) High purity substituted oxazolidinones prepared according to the method of the present invention and a ZYVOX standard (ZYVOX is a trade name for linezolid available from Pharmacia Corporation) were provided by Synthon Corporation, Monmouth Junction, N.J. Compounds were dissolved at 10 mg/mL in DMSO, as after a dilution of approx. 39.0 to reach the desired final starting concentration of 256 ug/ml, the concentration of DMSO is approximately 2.5%. Compounds were then stored at room temperature (25° C.) in the dark.
(§4) Antimicrobial susceptibility screening was as follows. All compounds were initially screened for activity in duplicate at 256 μg/mL (2.5% DMSO), including ZYVOX, the positive control for antimicrobial activity. A single well of bacterially inoculated 2.5% DMSO served as a positive control for bacterial growth, while a well of DMSO inoculated with of 50 μL of sterile 0.9% saline served as a negative growth control. Controls were prepared on every microplate, so that 46 was the maximum number of compounds that were screened per plate. Broth was pipetted into sterile microcentrifuge tubes, to which the compounds were then added (1:19.53 dilution or 2× final concentration). Each tube was vortexed, and 50 μL was immediately transferred to the microplate wells for each strain. Solubility was assessed by visual observation. MB (medium broth solubility) was recorded if the solution appeared only slightly cloudy. LB (low broth solubility) was recorded if the solution was extremely cloudy, and especially if larger, clumpy precipitates formed. Bacteria were grown as described above, although absorbance was measured at 650 nm and bacteria were diluted to an initial OD of 0.12-0.15. Bacteria were then further diluted 1:100 with 0.9% sterile saline. Within 15 minutes of this final dilution, 50 μL of this suspension was added to each well for a final volume of […], and a final bacterial concentration of 1×10^5 CFU/mL (except for the negative control well). Plates were grown as above and all observations were recorded. […]
(Dilution methods test growth across graded concentrations, often in twofold steps.)

Test [2] concerns Staphylococcus aureus (ATCC 43300). In words: Broth microdilution MIC, MR SA ATCC 43300. To be noted: ATCC43300, methicillin resistant SA, read-out: MIC90-100 MR SA ATCC 43300.
From the text: as §1, §2, §3, §4

In test [3] the test system is Erythroid bone marrow cells. In words: Bone marrow cell growth inhibition, erythroid. An excerpt: (§5) In general, many of the substituted oxazolidinones were as effective as ZYVOX.
In test [4] the test system is Staphylococcus aureus 29213. Kind of test: Broth microdilution MIC, Staphylococcus aureus ATCC 29213. To be noted: for MIC90 / MIC: Staphylococcus aureus; for MIC90: ATCC29212, Table 1, read-out: MIC90-100 SA ATCC 29212; for MIC: ATCC29213, Table 2, read-out: MIC(90-100) SA-ATCC 29213.
From the text: as §1, §2, §3, §4

In test [5] the test system is Staphylococcus aureus NRS3 (963sm; HIP5827; Michigan). Kind of test: Broth microdilution MIC, MR SA Michigan. As to conditions: strain Michigan; for MIC90: Staphylococcus aureus, NRS3, methicillin resistant SA, read-out: MIC90-100 MR SA Michigan.
From the text: as §1, §2, §3, §4

For test [6], the system named is Enterococcus faecalis (ATCC 51299). Kind of test: Broth microdilution MIC, Enterococcus faecalis ATCC 51299. To be noted: ATCC51299, vancomycin sensitive EF, ATCC 51299, read-out: MIC90-100 VS EF ATCC 51299.
From the text: as §1, §2, §3, §4

Test [7] concerns Enterococcus faecalis 29212. Kind of test: Broth microdilution MIC, Enterococcus faecalis ATCC 29212. As to conditions: EF, strain printed ATCC 29213; for MIC90: Enterococcus faecalis, ATCC29213, Table 1, read-out: MIC90-100 EF ATCC 29213.
Test [8] deals with Myeloid bone marrow cells. Kind of test: Bone marrow cell growth inhibition, myeloid.
From the text: as §5

The subject of test [9] is Megakaryocytic bone marrow cells. In words: Bone marrow cell growth inhibition, megakaryocytic.
From the text: as §5

The subject of test [10] is Staphylococcus aureus NRS102 (Reynolds). Kind of test: Broth microdilution MIC, Pen. R SA Reynolds. To be noted: strain Reynolds, read-out: MIC90-100 Pen. R SA Reynolds.
From the text: as §1, §2, §3, §4

The test system of test [11] is Staphylococcus aureus NRS103 (Becker). Kind of test: Broth microdilution MIC, Ref SA Becker. To be noted: strain Becker, read-out: MIC90-100 Ref SA Becker.
From the text: as §1, §2, §3, §4

As to `CN(C)C(=O)CN1C[C@@H](COS(=O)(=O)c2ccc([N+](=O)[O-])cc2)OC1=O` [Compound 1021], the MIC90 is 256 µg/mL (≈ 661 µM) in [1]; 100 µg/mL (≈ 258 µM) in [2]; 16 to 32 µg/mL (≈ 41.3 to 82.6 µM) in test [4] (SA, strain ATCC 29212); 256 µg/mL (≈ 661 µM) in [5]; greater than 256 µg/mL in [6]; 250 µg/mL (≈ 645 µM) in test [7]. Besides, the IC50 was found to be 20 µg/mL (≈ 51.6 µM) in [3], 20 µg/mL (≈ 51.6 µM) in test [8] and 0.9 µg/mL (≈ 2.32 µM) in test [9]. Besides, in [4], the MIC is 32 µg/mL (≈ 82.6 µM).

For the molecule `CCN1C[C@@H](COS(=O)(=O)c2ccc([N+](=O)[O-])cc2)OC1=O` [Compound 1192], the “MIC90-100 MR SA New Jersey” value in test [1] (methicillin resistant SA) came out at 256 µg/mL (≈ 775 µM). Moreover, the figures for the MIC90 in test [2] and in [6] were 128 µg/mL (≈ 388 µM) and greater than 256 µg/mL, respectively. Further, the IC50 in [3] was found to be 0.05 µg/mL (≈ 0.151 µM); in test [8] it was 5 µg/mL (≈ 15.1 µM); in test [9], 0.6 µg/mL (≈ 1.82 µM). Moreover, the MIC in test [4] was found to be 8 µg/mL (≈ 24.2 µM). The “MIC90-100 SA ATCC 29212” value in test [4] (Table 1, SA, strain ATCC 29212) is 4 to 8 µg/mL. Besides, the “MIC90-100 MR SA Michigan” value in test [5] (methicillin resistant SA) came to 256 µg/mL (≈ 775 µM). In addition, the “MIC90-100 EF ATCC 29213” value in test [7] (Table 1) was determined as 250 µg/mL (≈ 757 µM).

On to `CC(C)N1C[C@@H](CNSc2ccc([N+](=O)[O-])cc2)OC1=O` [Compound 1705], for which the MIC90 in test [10] turned out to be 32 µg/mL (≈ 103 µM); in test [1], 3 µg/mL (≈ 9.64 µM); in test [2], 4 µg/mL (≈ 12.8 µM); in [4] (SA, strain ATCC 29212), 2 µg/mL (≈ 6.42 µM); in test [5] it was 2 µg/mL (≈ 6.42 µM); in test [11], 4 µg/mL (≈ 12.8 µM). Besides, the MIC90 was determined as 8 µg/mL (≈ 25.7 µM) in [6] and 4 µg/mL (≈ 12.8 µM) in [7]. In addition, the IC50 in test [3] was 0.5 µg/mL (≈ 1.61 µM); in test [8], 5 µg/mL (≈ 16.1 µM); in test [9], 0.08 µg/mL (≈ 0.257 µM).

As for `CCN1C[C@H](CNSc2ccc([N+](=O)[O-])cc2)OC1=O` [Compound 1715], the MIC90 in test [10] stood at 32 µg/mL (≈ 108 µM); in [1], 3 µg/mL (≈ 10.1 µM); in test [2], 4 µg/mL (≈ 13.5 µM); in test [4] (SA, strain ATCC 29212), 2 µg/mL (≈ 6.73 µM); in test [5], 3 µg/mL (≈ 10.1 µM); in test [11], 8 µg/mL (≈ 26.9 µM). In addition, the MIC90 in test [6] was 8 µg/mL (≈ 26.9 µM); in [7], 4 µg/mL (≈ 13.5 µM). The IC50 in [3] is 0.7 µg/mL (≈ 2.35 µM); in test [8] it was 5 µg/mL (≈ 16.8 µM); in test [9] it was 0.08 µg/mL (≈ 0.269 µM).

On to `CC(=O)NC[C@H]1CN(c2ccc(N3CCOCC3)c(F)c2)C(=O)O1` [ZYVOX, linezolid, reference compound], for which the MIC90 in [10] was 1 µg/mL (≈ 2.96 µM); in [1] it was 2 µg/mL (≈ 5.93 µM); in test [2], 1 µg/mL (≈ 2.96 µM); in [4] (SA, strain ATCC 29212) it was 2 µg/mL (≈ 5.93 µM); in test [5] it was 2 µg/mL (≈ 5.93 µM); in [11] it was 1 µg/mL (≈ 2.96 µM). Moreover, the MIC90 is 0.5 µg/mL (≈ 1.48 µM) in [6] and 2 µg/mL (≈ 5.93 µM) in test [7]. The values for the IC50 in test [3], in [8] and in test [9] were 0.08 µg/mL (≈ 0.237 µM), 20 µg/mL (≈ 59.3 µM) and 4 µg/mL (≈ 11.9 µM), respectively.

A word on the MIC90: it is the lowest concentration that inhibits either 90% of growth or 90% of the strains tested, depending on the study. For orientation: IC50 means the concentration that inhibits the measured activity by half. A lower IC50 goes with greater potency in that assay. For orientation: MIC means the least concentration at which growth counts as inhibited.
